Measurements taken from ChEMBL document CHEMBL1201862, “PubChem BioAssay data set” (2004).
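All cell lines were grown in 96-well plates and treated with compound for 48 hours. Here, GI50 denotes the concentration required for 50% inhibition of growth.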 Active and inactive are the calls of the source. Cut-off read from the data, not from the text of the source: active = GI50 up to about 1.1 µM and inactive = higher.

Legend:
Assay in all cases: DTP human tumour cell line panel, 48 h
DMS-273 = system: DMS-273
SNB-78 = system: SNB-78
DMS-114 = system: DMS-114
RXF 631 = system: RXF 631
KM-20L2 = system: KM-20L2
XF498 = system: XF498
LXFL 529 = system: LXFL 529
HOP-18 = system: HOP-18

SMILES: Cc1ccc(/N=N/c2c(C)nn(-c3ccccc3)c2C)c(Br)c1
- GI50 (DMS-273): 51.3 µM (inactive)
- GI50 (SNB-78): > 100 µM (inactive)
- GI50 (DMS-114): > 100 µM (inactive)
- GI50 (RXF 631): > 100 µM (inactive)
- GI50 (KM-20L2): > 100 µM (inactive)
- GI50 (XF498): > 100 µM (inactive)
- GI50 (LXFL 529): 95.3 µM (inactive)
- GI50 (HOP-18): > 100 µM (inactive)

SMILES: CCCCCCCCCCCCCCCCc1c(O)nc(NC#N)nc1C(=O)OC
- GI50 (SNB-78): > 25 µM (inactive)
- GI50 (DMS-114): > 25 µM (inactive)
- GI50 (RXF 631): > 25 µM (inactive)
- GI50 (KM-20L2): > 25 µM (inactive)
- GI50 (XF498): > 25 µM (inactive)
- GI50 (LXFL 529): > 25 µM (inactive)
- GI50 (HOP-18): > 25 µM (inactive)

SMILES: Cc1nc2c(nc1C)C(=O)C1=C(C2=O)C2C=CC1CC2
- GI50 (DMS-273): 14.6 µM (inactive)
- GI50 (SNB-78): 3.21 µM (inactive)
- GI50 (DMS-114): 1.75 µM (inactive)
- GI50 (RXF 631): 6.15 µM (inactive)
- GI50 (KM-20L2): 23.3 µM (inactive)
- GI50 (XF498): 5.65 µM (inactive)
- GI50 (LXFL 529): 1.75 µM (inactive)
- GI50 (HOP-18): 16.4 µM (inactive)

SMILES: COc1ccccc1C(O)(c1ccccc1)C(O)(c1ccccc1)c1ccccc1OC (centres undefined)
- GI50 (DMS-273): > 100 µM (inactive)
- GI50 (SNB-78): > 100 µM (inactive)
- GI50 (DMS-114): > 100 µM (inactive)
- GI50 (RXF 631): > 100 µM (inactive)
- GI50 (KM-20L2): > 100 µM (inactive)
- GI50 (XF498): > 100 µM (inactive)
- GI50 (LXFL 529): > 100 µM (inactive)
- GI50 (HOP-18): > 100 µM (inactive)

SMILES: NC(=S)N/N=C(\CCC(=O)Nc1ccccc1[N+](=O)[O-])CC(=O)c1ccco1
- GI50 (DMS-273): > 100 µM (inactive)
- GI50 (SNB-78): > 100 µM (inactive)
- GI50 (DMS-114): > 100 µM (inactive)
- GI50 (RXF 631): > 100 µM (inactive)
- GI50 (KM-20L2): > 100 µM (inactive)
- GI50 (XF498): > 100 µM (inactive)
- GI50 (LXFL 529): > 100 µM (inactive)
- GI50 (HOP-18): > 100 µM (inactive)

SMILES: c1ccc([P+](c2ccccc2)(c2ccccc2)C2Sc3ccccc3S2)cc1
- GI50 (DMS-273): 18.1 µM (inactive)
- GI50 (SNB-78): 18.7 µM (inactive)
- GI50 (DMS-114): 12.7 µM (inactive)
- GI50 (RXF 631): 16 µM (inactive)
- GI50 (KM-20L2): 23.4 µM (inactive)
- GI50 (XF498): 17.3 µM (inactive)
- GI50 (LXFL 529): 12.6 µM (inactive)

SMILES: COC(=O)C(=O)C(C#N)c1nc2ccccc2s1 (centres undefined)
- GI50 (DMS-273): > 100 µM (inactive)
- GI50 (SNB-78): > 100 µM (inactive)
- GI50 (DMS-114): > 100 µM (inactive)
- GI50 (RXF 631): > 100 µM (inactive)
- GI50 (KM-20L2): > 100 µM (inactive)
- GI50 (XF498): > 100 µM (inactive)
- GI50 (LXFL 529): > 100 µM (inactive)

SMILES: CCOC(=O)C1(C)CCCCC(=O)N1 (centres undefined)
- GI50 (DMS-273): > 100 µM (inactive)
- GI50 (SNB-78): > 100 µM (inactive)
- GI50 (DMS-114): > 100 µM (inactive)
- GI50 (RXF 631): > 100 µM (inactive)
- GI50 (KM-20L2): > 100 µM (inactive)
- GI50 (XF498): > 100 µM (inactive)
- GI50 (LXFL 529): > 100 µM (inactive)
- GI50 (HOP-18): 64.3 µM (inactive)

SMILES: CN(C)CCNC(=O)c1cccc2cc3c(Cl)cccc3nc12
- GI50 (DMS-273): 0.562 µM (active)
- GI50 (SNB-78): 2.11 µM (inactive)
- GI50 (DMS-114): 1.35 µM (inactive)
- GI50 (RXF 631): 2.55 µM (inactive)
- GI50 (KM-20L2): 1.54 µM (inactive)
- GI50 (XF498): 0.394 µM (active)
- GI50 (LXFL 529): 1.67 µM (inactive)
- GI50 (HOP-18): 4.51 µM (inactive)
